From a melting point compilation (Tetko et al.; mined from patent text by program, amines drawn as free bases though some values may be those of a salt)

Row | Compound | melting point [°C]
1 | C#Cc1cccc(N2C(=O)C=CC2=O)c1 | 129 to 131
2 | Cc1c(C(=O)Nc2ccc(-c3ccc(S(=O)(=O)N(C)C(C(=O)O)C(C)C)cc3)cc2)oc2cccc(C(O)CO)c12 (stereo not given) | 222 to 225
3 | Cc1c(C)c2c(c(C)c1N)CC(C)(CN1CCC(NC(c3ccc(F)cc3)c3ccc(F)cc3)CC1)O2 (stereo not given) | 133 to 134
4 | CN(c1c(Cl)ccc2cc(-c3ncc(CO)s3)[nH]c12)S(=O)(=O)c1cccs1 | 214 to 215
5 | Oc1cc(C(O)C2CCCCC2)c2ccccc2n1 (stereo not given) | > 250
6 | CCC(C)(C)Nc1c(N(Cc2ccc(C#N)cc2Cl)C(C)=O)c(=O)c1=O | 150 to 151
7 | Cc1c(Nc2c(C#N)cncc2-c2nccs2)ccc2[nH]ccc12 | 245 to 247
8 | Nc1cc(F)c(OC(F)F)cc1[N+](=O)[O-] | 95 to 97.5
9 | Cc1nc(Cl)c2cc(C)oc2n1 | 47.6 to 48.1
10 | O=C(O)C12CC(c3ccccc31)c1ccccc12 | 200
11 | O=[N+]([O-])c1cccc(-n2cccn2)c1 | 85 to 87
12 | CC(=O)c1cn(S(=O)(=O)c2ccccc2)c2nccc(OC3CCCCC3)c12 | 107 to 109
13 | CS(=O)(=O)N1CCN(S(=O)(=O)c2ccc(-c3cccs3)cc2)[C@@H](C(=O)NOC2CCCCO2)C1 (stereo not given in full) | 194 to 195
14 | COC(=O)Cc1c(C(=O)OC)oc2ccccc2c1=O | 105
15 | COc1cc(-n2c(-c3cc(-c4cnc5[nH]ccc5c4)ccn3)cn(C)c2=O)ccc1Cl | 223
16 | CCC(CC)C(NS(=O)(=O)c1ccc(Cl)s1)C(C)O (stereo not given) | 95 to 98
17 | CC(=O)[C@H]1C[C@@H](C(N)=S)N(C(=O)OCc2ccc([N+](=O)[O-])cc2)C1 | 168 to 170
18 | COc1ccc(-c2cc(C(Cl)Cl)nn2-c2ccc(S(N)(=O)=O)cc2)cc1F | 190 to 193
19 | COC(=O)c1ccccc1Oc1ccc(C)cc1[N+](=O)[O-] | 71 to 73
20 | c1ccc2c(c1)C[C@H]1Nc3ccccc3[C@@H]21 (relative stereo) | 85 to 86
21 | CCC1N=C(c2ccccc2Cl)c2cc(CCC(=O)O)sc2-n2c(C)nnc21 (stereo not given) | 218 to 220

Row | Compound | melting point [°C]
22 | CCC(C)Sc1cc(C(=O)O)cc(N)c1Oc1ccccc1 (stereo not given) | 157 to 159
23 | Cn1c(=O)[nH]c2nc3ccc(OCCCC(=O)O)cc3cc21 | 286 to 288
24 | CCOC(=O)c1ccc(NCCC[Si](C)(C)C)cc1 | 64 to 66
25 | O=c1oc(-c2cc(C(F)(F)F)cc(C(F)(F)F)c2)cc(O)c1Cc1ccccc1 | 80 to 82
26 | CCOC(=O)C(Cc1ccc(O)cc1)C(=O)OCC | 45
27 | Cc1cc(CN2CCC(N(C)S(=O)(=O)c3ccc(Nc4nccc(Nc5ccc(F)c(F)c5)n4)cc3)CC2)no1 | 204 to 206
28 | Cn1ccnc1N1CCC(c2ccc(N)cc2)CC1 | 187 to 188
29 | Cc1cccc(C(O)CNC2=NCCN2)c1 (stereo not given) | 121
30 | CC(C)(Oc1ccc(F)cc1Cl)C(=O)O | 63 to 65
31 | C[Si](C)(C)C#CC1(OC(=O)c2ccccc2)C(COC(=O)c2ccc(Cl)cc2)OC(OC(=O)c2ccccc2)C1OC(=O)c1ccccc1 (stereo not given) | 63 to 66
32 | C=Cc1nn(Cc2ccc(C(=O)OC)cc2OC)c2cc(C(=O)NCC3CCCC3)ccc12 | 138 to 140
33 | CC(Cl)C(=O)c1ccc2c(c1)CCC(=O)N2 (stereo not given) | 205 to 206
34 | COC(=O)c1ccc(Cn2nc(CO)c3ccc(C(=O)NCC4CCCC4)cc32)c(OC)c1 | 187 to 188
35 | COc1ccc2nn(C=Cc3ccc(-c4ccccc4)cc3)nc2c1 | 165 to 175
36 | COc1cnc(-c2cccn3nc(Nc4ccc(C5CCN(C(=O)OC(C)(C)C)CC5)cc4)nc23)cn1 | 193 to 195
37 | O=C(c1cc2cccc(NS(=O)(=O)c3cccs3)c2[nH]1)N1CCCC1 | 248 to 249
38 | O=[N+]([O-])c1cccc(-c2ncc[nH]2)c1 | 193 to 194
39 | Cn1nc(-c2c(Cl)cncc2Cl)nc1Cc1ccc(Cl)cc1Cl | 79 to 81
40 | CCOC(=O)[C@@H]1CN(CC2=Cc3ccc(OC)cc32)CC[C@H]1O (relative stereo) | 156 to 160
41 | NCC(=O)N(O)Cc1ccccc1 | 142 to 143
42 | O=C(O)COC(=O)c1ccccc1O | 131 to 132

Further lines, results first:

Row | melting point [°C] | Compound
43 | 136 | COC(=O)C(Cl)Cc1ccc2ccc(Oc3c(Cl)cc(C(F)(F)F)cc3Cl)cc2c1 (stereo not given)
44 | 61 to 61.5 | COC(=O)c1ccc(OCCCc2ccccc2)cc1
45 | 62 to 63 | CCOC(=O)/C=C/c1cnn(Cc2ccccc2)c1-c1ccccc1
46 | 142 to 146 | Cc1nn(CC(F)(F)COC(=O)CN)c(-c2ccc(F)cc2)c1-c1ccc2c(c1)NC(=O)CO2
47 | 200 to 203 | CCCc1nc2c(N)nc3cc(OCc4cccc(C)c4)ccc3c2n1CC(C)C
48 | 75 to 80 | CC(=CCCC(C)C1CCC2(C)C3=CCC4C(C)(C)C(=O)CCC4(C)C3=CCC12C)CO (stereo not given)
49 | 51.4 to 52.8 | CN(C#N)C(=O)CCCC(=O)N(C)C#N
50 | 120 to 146 | CCOC(=O)NN=C(c1ccc(Cl)cc1)c1ccc(OC(=O)CC)cc1
51 | 218 to 219 | CCN1CCN(c2ccnc3sc(C(N)=O)c(N)c23)CC1
52 | 235 to 236 | COc1cc(C=CC(=O)Nc2cnc3ccc(C)cc3c2-c2ccccc2Cl)cc(OC)c1O
53 | 167 | CC(C)=CCc1cc(C=CC(=O)c2ccc(O)cc2O)ccc1O
54 | 181 to 183 | COc1cc(C)cc(NC(=O)c2nnnn2Cc2ccccc2)c1OCc1ccccc1
55 | 90 to 93 | O=c1c2cccc3c2n(c(=O)n1CCO)-c1cc(C(F)(F)F)ccc1S3
56 | 206 to 207 | CN(C)C(=O)c1ccccc1-c1ccc(C(=O)N2Cc3ccc(C(=O)NCc4cccnc4)n3Cc3ccccc32)cc1
57 | 87 to 89 | COc1ccc(C(O)Cc2c(Cl)cccc2Cl)cc1OC1CCCC1 (stereo not given)
58 | 111 to 112 | CC=NN(C)C1=NOCc2ccc(Cl)cc21
59 | 126 to 127 | Cc1cn(-c2ccc(N)c(C(F)(F)F)c2)c(C)n1
60 | 124 to 126 | COc1cc(C(=O)O)c2c(c1OC)OC(C1CC1)C=C2 (stereo not given)
61 | 196 to 198 | O=C(Cc1cc(F)cc(F)c1)Nc1ccc(NCc2ccc(F)cc2)nc1N1CCOCC1
62 | 175 | Cc1ccc(C(C)(C)C)c(SC2=C(O)CC(CCc3ccccc3)(c3ccc(OCCN4CCNCC4)cc3)OC2=O)c1 (stereo not given)
63 | 199 to 201 | O=C1Nc2ccccc2N(C(=O)CN2CCCCC2CN2CCCC2)c2ccccc21 (stereo not given)
64 | 119 to 120 | CN(C)CCCCC1CCCN(CCNC(=O)N2c3ccccc3C(=O)Nc3cccnc32)C1 (stereo not given)
65 | 151 to 153 | CCOC(=O)NC(CCc1ccccc1)P(=O)(CC(=O)O)OCc1ccccc1 (stereo not given)
66 | 141 to 142 | CCOC(=O)c1cnc2n(c1=O)C(C)CC=C2NC (stereo not given)
67 | 74 to 75 | O=C(CCc1ccccc1)C(Cc1ccccc1)C(=O)CCc1ccccc1
68 | 105 to 106 | CON(C)C(=O)c1ccc(-c2ccc(CBr)cc2)cc1
69 | 127 to 129 | CCCNC(=NS(=O)(=O)N(C)C)N1CC(c2ccccc2)C(c2ccc(Cl)cc2)=N1 (stereo not given)
70 | 178 to 180 | COc1ccc(C2=NN(CC(=O)O)C(=O)[C@H]3CC=CC[C@@H]23)cc1OC (relative stereo)
